Experimental findings from ChEMBL document CHEMBL1153018, “Synthesis of pochoxime prodrugs as potent HSP90 inhibitors” (Bioorg Med Chem Lett, 2009) are described below.

The source made the active and inactive calls. The rule behind the calls is not given here.

The species named for one series is Homo sapiens. The series is described as follows: Growth inhibition of human tarceva and iressa-resistant […] cells assessed as ATP level after 4 days. Type of series: functional.
A further series has as its system MV4-11. The series is described as follows: Growth inhibition of human MV4-11 cells assessed as ATP level after 4 days. In kind it is functional. Conditions: MV4-11, 96 h.
A further series relates to BT-474. The series is described as follows: Growth inhibition of human BT474 cells assessed as ATP level after 4 days. Type of series: functional. Conditions: BT-474, 96 h.
A further series concerns NSCLC. The series is described as follows: Growth inhibition of human NSCLC cells assessed as ATP level after 4 days. Type of series: functional, cell-based.
Series [1] can be described thus: Growth inhibition of human MDA231 cells assessed as ATP level after 4 days. In kind it is functional. The settings on record: MDA-MB-231, 96 h.
Series [2] addresses Heat shock protein HSP 90-alpha (Homo sapiens) (UniProt P07900).
For another series, the system named is NCI-N87. The series is described as follows: Growth inhibition of human NCI-N87 cells assessed as ATP level after 4 days. Conditions: NCI-N87, 96 h. Type of series: functional.
A further series deals with PC-3. The series is described as follows: Growth inhibition of human PC3 cells assessed as ATP level after 4 days. Type of series: functional, cell-based.
A further series has as its system K562. The series is described as follows: Growth inhibition of human K562 cells assessed as ATP level after 4 days. Type of series: functional. Conditions: K562, 96 h.
A further series has as its system MDA-MB-468. The experiment in a line: Growth inhibition of human MDA-MB-468 cells assessed as ATP level after 4 days. Type of series: functional. Conditions: MDA-MB-468, 96 h.
Series [3] deals with Heat shock protein HSP 90-alpha (Homo sapiens) (UniProt P07900). The experiment in a line: Binding affinity to human HSP90alpha at < 10 uM.
Series [4] in a line: Aqueous solubility of the compound. In kind it is physicochemical.
Series [5] has as its system Mus musculus. The experiment in a line: Hepatotoxicity in ICR-SCID mouse liver assessed as alanine aminotransferase level at 75 mg/kg administered 3 times per week for 4 weeks measured after 24 hrs of last dose relative to untreated control. In kind it is toxicity, organism-based. Further details: dose 75 mg/kg. The settings on record: in vivo.
The subject of series [6] is Mus musculus. The experiment in a line: Hepatotoxicity in ICR-SCID mouse liver assessed as alanine aminotransferase level at 50 mg/kg administered 3 times per week for 4 weeks measured after 24 hrs of last dose relative to untreated control. In kind it is toxicity, organism-based. Details: dose 50 mg/kg. The settings on record: in vivo.
In series [7] the test system is Mus musculus. The series is described as follows: Hepatotoxicity in ICR-SCID mouse liver assessed as alkaline phosphatase level at 100 mg/kg administered 3 times per week for 4 weeks measured after 24 hrs of last dose relative to untreated control. In kind it is toxicity, organism-based. Details: dose 100 mg/kg. Conditions: in vivo.
The test system of series [8] is Mus musculus. The experiment in a line: Hepatotoxicity in ICR-SCID mouse liver assessed as alanine aminotransferase level at 100 mg/kg administered 3 times per week for 4 weeks measured after 24 hrs of last dose relative to untreated control. In kind it is toxicity, organism-based. The settings on record: in vivo. Details: dose 100 mg/kg.
The test system of series [9] is Mus musculus. The experiment in a line: Toxicity in ICR-SCID mouse heart assessed as cholesterol level at 75 mg/kg administered 3 times per week for 4 weeks measured after 24 hrs of last dose relative to untreated control. Type of series: organism-based. Further details: dose 75 mg/kg. Conditions: in vivo.
The test system of series [10] is Mus musculus. The series is described as follows: Toxicity in ICR-SCID mouse heart assessed as […] level at 50 mg/kg administered 3 times per week for 4 weeks measured after 24 hrs of last dose relative to untreated control. Conditions: in vivo. Details: dose 50 mg/kg. In kind it is organism-based.
The test system of series [11] is Mus musculus. The experiment in a line: Hepatotoxicity in ICR-SCID mouse liver assessed as alkaline phosphatase level at 75 mg/kg administered 3 times per week for 4 weeks measured after 24 hrs of last dose relative to untreated control. In kind it is toxicity, organism-based. Details: dose 75 mg/kg. The settings on record: in vivo.
Series [12] deals with Mus musculus. The experiment in a line: Hepatotoxicity in ICR-SCID mouse liver assessed as bilirubin level at 75 mg/kg administered 3 times per week for 4 weeks measured after 24 hrs of last dose relative to untreated control. Type of series: toxicity, organism-based. Details: dose 75 mg/kg. Conditions: in vivo.
Series [13] has as its system Mus musculus. The series is described as follows: Hepatotoxicity in ICR-SCID mouse liver assessed as bilirubin level at 100 mg/kg administered 3 times per week for 4 weeks measured after 24 hrs of last dose relative to untreated control. In kind it is toxicity, organism-based. Further details: dose 100 mg/kg. Conditions: in vivo.
Series [14] in a line: Growth inhibition of human tarceva and iressa-resistant HCC827 cells assessed as ATP level after 4 days. In kind it is functional. The settings on record: HCC827, 96 h.
For series [15], the system named is Mus musculus. The experiment in a line: Hepatotoxicity in ICR-SCID mouse liver assessed as aspartate aminotransferase level at 75 mg/kg administered 3 times per week for 4 weeks measured after 24 hrs of last dose relative to untreated control. Details: dose 75 mg/kg. Conditions: in vivo. Type of series: toxicity, organism-based.
For series [16], the system named is Mus musculus. The series is described as follows: Toxicity in ICR-SCID mouse kidney assessed as creatinine level at 50 mg/kg administered 3 times per week for 4 weeks measured after 24 hrs of last dose relative to untreated control. In kind it is organism-based. Further details: dose 50 mg/kg. The settings on record: in vivo.
The test system of series [17] is Mus musculus. The experiment in a line: Hepatotoxicity in ICR-SCID mouse liver assessed as aspartate aminotransferase level at 100 mg/kg administered 3 times per week for 4 weeks measured after 24 hrs of last dose relative to untreated control. In kind it is toxicity, organism-based. Details: dose 100 mg/kg. Conditions: in vivo.
The test system of series [18] is Mus musculus. The series is described as follows: Hepatotoxicity in ICR-SCID mouse liver assessed as bilirubin level at 50 mg/kg administered 3 times per week for 4 weeks measured after 24 hrs of last dose relative to untreated control. In kind it is toxicity, organism-based. Details: dose 50 mg/kg. Conditions: in vivo.
Series [19] deals with Mus musculus. The series is described as follows: Toxicity in ICR-SCID mouse kidney assessed as creatinine level at 75 mg/kg administered 3 times per week for 4 weeks measured after 24 hrs of last dose relative to untreated control. Type of series: organism-based. Details: dose 75 mg/kg. The settings on record: in vivo.
The subject of series [20] is Mus musculus. The experiment in a line: Hepatotoxicity in ICR-SCID mouse liver assessed as aspartate aminotransferase level at 50 mg/kg administered 3 times per week for 4 weeks measured after 24 hrs of last dose relative to untreated control. Details: dose 50 mg/kg. Conditions: in vivo. Type of series: toxicity, organism-based.
In series [21] the test system is Mus musculus. The experiment in a line: Toxicity in ICR-SCID mouse heart assessed as cholesterol level at 50 mg/kg administered 3 times per week for 4 weeks measured after 24 hrs of last dose relative to untreated control. Type of series: organism-based. Further details: dose 50 mg/kg. The settings on record: in vivo.
The test system of another series is NCI-H1975. The experiment in a line: Growth inhibition of human tarceva and iressa-resistant NCI-H1975 cells assessed as ATP level after 4 days. Type of series: functional. Conditions: NCI-H1975, 96 h.
In series [22] the test system is Mus musculus. The experiment in a line: Hepatotoxicity in ICR-SCID mouse liver assessed as alkaline phosphatase level at 50 mg/kg administered 3 times per week for 4 weeks measured after 24 hrs of last dose relative to untreated control. In kind it is toxicity, organism-based. Further details: dose 50 mg/kg. Conditions: in vivo.
Series [23] concerns Mus musculus. The series is described as follows: Toxicity in ICR-SCID mouse heart assessed as […] level at 75 mg/kg administered 3 times per week for 4 weeks measured after 24 hrs of last dose relative to untreated control. In kind it is organism-based. Further details: dose 75 mg/kg. Conditions: in vivo.
Another series relates to Liver. The series is described as follows: Drug level in mouse liver at 30 mg/kg, po. Type of series: ADME, organism-based. Details: dose 30 mg/kg, route oral. Conditions: in vivo.
The nature of series [24]: Drug level in mouse liver at 4 mg/kg, iv. Further details: dose 4 mg/kg, route intravenous. Type of series: ADME, organism-based.
For the next series, the system named is HCT-116. The series is described as follows: Growth inhibition of human HCT116 cells assessed as ATP level after 4 days. In kind it is functional. The settings on record: HCT-116, 96 h.

In general, GI50 refers to the concentration at which growth is held to half of that of the control. With `C[C@@H]1C/C=C/CC/C=C/C(=N/OCC(=O)N2CCCCC2)Cc2cc(O)cc(O)c2C(=O)O1` [POCHOXIME C], the outcome in the series listed under Homo sapiens, in the series with NSCLC and with PC-3 was Active. The GI50 in the series on MV4-11 is 3 nM; with BT-474, 6 nM; in series [1], 6 nM; in series [2] it was 18 nM; in the series with NCI-N87 it was 2 nM; in the series on K562 it was 7 nM. Further, in the series with MDA-MB-468, the GI50 is 6 nM.

A word on the solubility: it is how much of the substance goes into solution per volume. High values mean much dissolved substance, low ones little dissolved substance. Regarding `O=C1OCC/C=C/CC/C=C/C(=N/OCC(=O)N2CCCCC2)Cc2cc(OCOP(=O)([O-])[O-])cc(O)c21.[Na+].[Na+]`, the outcome in series [3] was inactive. Also, the solubility in series [4] is ≥ 80 mg/mL.

Regarding `O=C1OCC/C=C/CC/C=C/C(=N/OCC(=O)N2CCCCC2)Cc2cc(OP(=O)([O-])[O-])cc(O)c21.[Na+].[Na+]`, the outcome in series [3] was inactive. For the same compound, the solubility in [4] is ≥ 80 mg/mL.

For the compound `C=CCNC1=C2C[C@@H](C)C[C@H](OC)[C@H](O)[C@@H](C)/C=C(\C)[C@H](OC(N)=O)[C@@H](OC)/C=C\C=C(/C)C(=O)NC(=CC1=O)C2=O` (stereo in doubt) [TANESPIMYCIN], the Activity with Mus musculus [5] came out at 755.7 U/L; in the series with Mus musculus [6], 175.3 U/L; with Mus musculus [7], 131.3 U/L; with Mus musculus [8], 11134 U/L; in the series on Mus musculus [9], 97.5 mg/dL; in the series with Mus musculus [10], 64.7 U/L. Further, the Activity amounted to 143.3 U/L in the series with Mus musculus [11]; 0.25 mg/dL with Mus musculus [12]; 1.1 mg/dL in the series on Mus musculus [13]; 1058.3 U/L in the series on Mus musculus [15]; 0.2 mg/dL in the series on Mus musculus [16]; 10611.3 U/L in the series with Mus musculus [17]. For the same compound, the Activity with Mus musculus [18] worked out at 0.2 mg/dL; in the series on Mus musculus [19] it was 0.2 mg/dL; with Mus musculus [20], 216 U/L; in the series on Mus musculus [21], 105.3 mg/dL; in the series on Mus musculus [22] it was 128.3 U/L; in the series with Mus musculus [23], 166 U/L. Moreover, the GI50 with MV4-11 was 11 nM; in series [14] it was 56 nM; in the series with BT-474 it was 5 nM; with NCI-N87, 1 nM; in the series with K562, 48 nM; in the series with NCI-H1975, 35 nM. Further, the GI50 in the series with MDA-MB-468 turned out to be 780 nM.

The term Cmax denotes the peak of the concentration-time curve. As to `C[C@@H]1C/C=C/CC/C=C/C(=N/OCC(=O)N2CCCCC2)Cc2cc(OP(=O)([O-])[O-])cc(OP(=O)([O-])[O-])c2C(=O)O1.[Na+].[Na+].[Na+].[Na+]`, the result in series [3] was inactive. The Drug uptake in the series with Liver is on record as 12469 ng/g. Further, in series [4], the solubility was > 100 mg/mL. In series [24], this compound yielded a Cmax of 3840 ng/g.

In the case of `O=C1OCC/C=C/CC/C=C/C(=N/OCC(=O)N2CCCCC2)Cc2c(Cl)c(O)cc(OP(=O)([O-])[O-])c21.[Na+].[Na+]`, in series [3], the result was inactive. Besides, the solubility in series [4] is ≥ 80 mg/mL.

With `O=C1OCC/C=C/CC/C=C/C(=N/OCC(=O)N2CCCCC2)Cc2c(Cl)c(OP(=O)([O-])[O-])cc(O)c21.[Na+].[Na+]`, the result in series [3] was inactive. The GI50 was 14 nM in the series on BT-474, > 10000 nM in series [2], 19 nM with NCI-N87 and 37 nM in the series on MDA-MB-468. In series [4], the solubility was ≥ 80 mg/mL.

For the compound `C[C@@H]1C/C=C/CC/C=C/C(=N/OCC(=O)N2CCCCC2)Cc2cc(OP(=O)([O-])[O-])cc(O)c2C(=O)O1.[Na+].[Na+]`, the outcome in [3] was inactive. Further, the solubility in series [4] was ≥ 80 mg/mL.

Turning to `O=C1OCC/C=C/CC/C=C/C(=N/OCC(=O)N2CCCCC2)Cc2cc(O)cc(O)c21` [POCHOXIME B], the outcome in the series listed under Homo sapiens, in the series with NSCLC and in the series on PC-3 was Active. The GI50 stood at 2 nM in the series with MV4-11; 11 nM with HCT-116; 2 nM with BT-474; 2 nM in series [1]; 15 nM in series [2]; 1 nM in the series with NCI-N87. The GI50 stood at 4 nM with K562 and 2 nM with MDA-MB-468.
